Measured values reported in ChEMBL document CHEMBL5113383, “Application of the All-Hydrocarbon Stapling Technique in the Design of Membrane-Active Peptides” (J Med Chem, 2022).

Test: Hemolytic activity in rabbit erythrocytes
Type: toxicity, cell-based, Oryctolagus cuniculus, Erythrocyte

CC[C@H](C)[C@H](NC(=O)CNC(C)=O)C(=O)NCC(=O)N[C@@H](C)C(=O)N[C@H](C(=O)N[C@@H](CC(C)C)C(=O)N[C@@H](CCCCN)C(=O)N[C@H](C(=O)N[C@@H](CC(C)C)C(=O)N[C@H](C(=O)N[C@H](C(=O)NCC(=O)N[C@@H](CC(C)C)C(=O)N1CCC[C@H]1C(=O)N[C@@H](C)C(=O)N[C@@H](CC(C)C)C(=O)N[C@H](C(=O)N[C@@H](CO)C(=O)N[C@@H](Cc1c[nH]c2ccccc12)C(=O)N[C@H](C(=O)N[C@@H](CCCCN)C(=O)N[C@@H](CCCNC(=N)N)C(=O)N[C@@H](CCCCN)C(=O)N[C@@H](CCCNC(=N)N)C(=O)N[C@@H](CCC(N)=O)C(=O)N[C@@H](CCC(N)=O)C(N)=O)[C@@H](C)CC)[C@@H](C)CC)[C@@H](C)CC)[C@@H](C)O)C(C)C)C(C)C
HC50: 2600 nM

CC[C@H](C)[C@H](NC(=O)CNC(C)=O)C(=O)NCC(=O)N[C@@H](C)C(=O)N[C@H](C(=O)N[C@@H](CC(C)C)C(=O)N[C@@H](CCCCN)C(=O)N[C@H](C(=O)N[C@@H](CC(C)C)C(=O)N[C@H](C(=O)N[C@H](C(=O)NCC(=O)N[C@@H](CC(C)C)C(=O)N1CCC[C@H]1C(=O)N[C@]1(C)CCCCCC/C=C\CCC[C@@](C)(C(=O)N[C@@H](CCCCN)C(=O)N[C@@H](CCCNC(=N)N)C(=O)N[C@@H](CCC(N)=O)C(=O)N[C@@H](CCC(N)=O)C(N)=O)NC(=O)[C@H](CCCCN)NC(=O)[C@H]([C@@H](C)CC)NC(=O)[C@H](Cc2c[nH]c3ccccc23)NC(=O)[C@H](CO)NC(=O)[C@H]([C@@H](C)CC)NC(=O)[C@H](CC(C)C)NC1=O)[C@@H](C)O)[C@@H](C)O)C(C)C)C(C)C
HC50: 700 nM
